Source: US20250170090A1, “METHOD FOR PREVENTING OR TREATING DISEASE OR DISORDER ASSOCIATED WITH ANTINEOPLASTIC AGENT” (ONQUALITY PHARMACEUTICALS CHINA LTD., priority 2022, published 2025)
Where two headings read alike, the source gives them in different places.

Key:
[1] = tested on: chemotherapy-induced hand-foot syndrome; experiment: Prevention of chemotherapy-induced hand-foot syndrome in rat models (Table 5); type: in vivo, SD rats
Summary of the method: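 SD rats (~200 g, 10 per group) received chemotherapy drugs by gavage at 1 mL/100 g, then NO-NSAID ointment or blank ointment was applied to the paws. Hand-foot syndrome incidence was recorded, and control rate was taken as blank-group incidence minus treated-group incidence.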

HUVEC cells = experiment: CCK-8 cell viability: alleviation of proliferative toxicity of anti-tumor agents on HUVEC cells (Tables 7-1, 7-2); type: cell-based; conditions: for activation at 100 µM: Homo sapiens, 24 h, percentage increase in viable cells vs anti-tumor agent alone, read-out: Response rate % (average)
Summary of the method: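 Viability was measured by CCK-8 after 24-48 h of culture. Cells received anti-tumor agent in DMSO with or without co-added NO-NSAID (dissolved in ethanol or sterile water), and results were corrected against the matching NO-NSAID solvent control.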

[2] = Afatinib (10 μM), NO-NSAID 100 μM
[3] = Cabozantinib (5 μM), NO-NSAID 100 μM
[4] = Dabrafenib (10 μM), NO-NSAID 100 μM
[5] = Everolimus (5 μM), NO-NSAID 100 μM
[6] = Infigratinib (15 μM), NO-NSAID 100 μM
[7] = Lapatinib (5 μM), NO-NSAID 100 μM
[8] = Lenvatinib (10 μM), NO-NSAID 100 μM
[9] = Olmutinib (10 μM), NO-NSAID 100 μM
[10] = Regorafenib (5 μM), NO-NSAID 100 μM
[11] = Selumetinib (5 μM), NO-NSAID 100 μM
[12] = Sorafenib (5 μM), NO-NSAID 100 μM
[13] = Sunitinib (5 μM), NO-NSAID 100 μM

## CC(C(=O)OCCCO[N+](=O)[O-])c1ccc(-c2ccccc2)c(F)c1 (stereo not shown) [Compound A1]
[1]; Capecitabine 4000 mg/kg once a day, ointment 1% wt, Days 40
  Control rate: 37.50%
[1]; Capecitabine 4000 mg/kg once a day, ointment 3% wt, Days 40
  Control rate: 44.44%
[1]; Doxorubicin 7 mg/kg once every three days, ointment 1% wt, Days 30
  Control rate: 50.00%
HUVEC cells; Afatinib (10 μM), NO-NSAID 0.1 μM
  NO-NSAID response rate % (average): 13%
HUVEC cells; Afatinib (10 μM), NO-NSAID 1 μM
  NO-NSAID response rate % (average): 20%
HUVEC cells; [2]
  NO-NSAID response rate % (average): 50%
  activation at 100 µM: 50%
HUVEC cells; Afatinib (10 μM), NO-NSAID 500 μM
  NO-NSAID response rate % (average): 25%
HUVEC cells; Cabozantinib (5 μM), NO-NSAID 0.1 μM
  NO-NSAID response rate % (average): 10%
HUVEC cells; Cabozantinib (5 μM), NO-NSAID 1 μM
  NO-NSAID response rate % (average): 10%
HUVEC cells; [3]
  NO-NSAID response rate % (average): 4%
  activation at 100 µM: 4%
HUVEC cells; Cabozantinib (5 μM), NO-NSAID 500 μM
  NO-NSAID response rate % (average): 15%
HUVEC cells; Dabrafenib (10 μM), NO-NSAID 0.1 μM
  NO-NSAID response rate % (average): 22%
HUVEC cells; Dabrafenib (10 μM), NO-NSAID 1 μM
  NO-NSAID response rate % (average): 48%
HUVEC cells; [4]
  NO-NSAID response rate % (average): 53%
  activation at 100 µM: 53%
HUVEC cells; Dabrafenib (10 μM), NO-NSAID 500 μM
  NO-NSAID response rate % (average): 37%
HUVEC cells; Everolimus (5 μM), NO-NSAID 0.1 μM
  NO-NSAID response rate % (average): 4%
HUVEC cells; Everolimus (5 μM), NO-NSAID 1 μM
  NO-NSAID response rate % (average): −2%
HUVEC cells; [5]
  NO-NSAID response rate % (average): 62%
  activation at 100 µM: 62%
HUVEC cells; Everolimus (5 μM), NO-NSAID 500 μM
  NO-NSAID response rate % (average): 20%
HUVEC cells; Anlotinib (5 μM), NO-NSAID 100 μM
  activation at 100 µM: 16%
HUVEC cells; Apatinib (10 μM), NO-NSAID 100 μM
  activation at 100 µM: 43%
HUVEC cells; Axitinib (10 μM), NO-NSAID 100 μM
  activation at 100 µM: 65%
HUVEC cells; Dacomitinib (5 μM), NO-NSAID 100 μM
  activation at 100 µM: 59%
HUVEC cells; Encorafenib (5 μM), NO-NSAID 100 μM
  activation at 100 µM: 65%
HUVEC cells; Erdafitinib (10 μM), NO-NSAID 100 μM
  activation at 100 µM: 51%
HUVEC cells; Famitinib (5 μM), NO-NSAID 100 μM
  activation at 100 µM: 70%
HUVEC cells; Fruquintinib (10 μM), NO-NSAID 100 μM
  activation at 100 µM: 23%
HUVEC cells; Gefitinib (10 μM), NO-NSAID 100 μM
  activation at 100 µM: 30%
HUVEC cells; [6]
  activation at 100 µM: 80%
  NO-NSAID response rate % (average): 80%
HUVEC cells; [7]
  activation at 100 µM: 27%
  NO-NSAID response rate % (average): 27%
HUVEC cells; [8]
  activation at 100 µM: 28%
  NO-NSAID response rate % (average): 28%
HUVEC cells; [9]
  activation at 100 µM: 37%
  NO-NSAID response rate % (average): 37%
HUVEC cells; [10]
  activation at 100 µM: 64%
  NO-NSAID response rate % (average): 64%
HUVEC cells; [11]
  activation at 100 µM: 51%
  NO-NSAID response rate % (average): 51%
HUVEC cells; [12]
  activation at 100 µM: 51%
  NO-NSAID response rate % (average): 51%
HUVEC cells; [13]
  activation at 100 µM: 11%
  NO-NSAID response rate % (average): 11%
HUVEC cells; Vemurafenib (5 μM), NO-NSAID 100 μM
  activation at 100 µM: 45%
HUVEC cells; Infigratinib (15 μM), NO-NSAID 0.1 μM
  NO-NSAID response rate % (average): 23%
HUVEC cells; Infigratinib (15 μM), NO-NSAID 1 μM
  NO-NSAID response rate % (average): 14%
HUVEC cells; Infigratinib (15 μM), NO-NSAID 500 μM
  NO-NSAID response rate % (average): 25%
HUVEC cells; Lapatinib (5 μM), NO-NSAID 0.1 μM
  NO-NSAID response rate % (average): 27%
HUVEC cells; Lapatinib (5 μM), NO-NSAID 1 μM
  NO-NSAID response rate % (average): 23%
HUVEC cells; Lapatinib (5 μM), NO-NSAID 500 μM
  NO-NSAID response rate % (average): 24%
HUVEC cells; Lenvatinib (10 μM), NO-NSAID 0.1 μM
  NO-NSAID response rate % (average): 21%
HUVEC cells; Lenvatinib (10 μM), NO-NSAID 1 μM
  NO-NSAID response rate % (average): 13%
HUVEC cells; Lenvatinib (10 μM), NO-NSAID 500 μM
  NO-NSAID response rate % (average): 10%
HUVEC cells; Olmutinib (10 μM), NO-NSAID 0.1 μM
  NO-NSAID response rate % (average): 25%
HUVEC cells; Olmutinib (10 μM), NO-NSAID 1 μM
  NO-NSAID response rate % (average): 20%
HUVEC cells; Olmutinib (10 μM), NO-NSAID 500 μM
  NO-NSAID response rate % (average): 31%
HUVEC cells; Regorafenib (5 μM), NO-NSAID 0.1 μM
  NO-NSAID response rate % (average): 21%
HUVEC cells; Regorafenib (5 μM), NO-NSAID 1 μM
  NO-NSAID response rate % (average): 27%
HUVEC cells; Regorafenib (5 μM), NO-NSAID 500 μM
  NO-NSAID response rate % (average): 42%
HUVEC cells; Selumetinib (5 μM), NO-NSAID 0.1 μM
  NO-NSAID response rate % (average): 36%
HUVEC cells; Selumetinib (5 μM), NO-NSAID 1 μM
  NO-NSAID response rate % (average): 28%
HUVEC cells; Selumetinib (5 μM), NO-NSAID 500 μM
  NO-NSAID response rate % (average): 25%
HUVEC cells; Sorafenib (5 μM), NO-NSAID 0.1 μM
  NO-NSAID response rate % (average): 1%
HUVEC cells; Sorafenib (5 μM), NO-NSAID 1 μM
  NO-NSAID response rate % (average): 14%
HUVEC cells; Sorafenib (5 μM), NO-NSAID 500 μM
  NO-NSAID response rate % (average): 8%
HUVEC cells; Sunitinib (5 μM), NO-NSAID 0.1 μM
  NO-NSAID response rate % (average): 19%
HUVEC cells; Sunitinib (5 μM), NO-NSAID 1 μM
  NO-NSAID response rate % (average): 5%
HUVEC cells; Sunitinib (5 μM), NO-NSAID 500 μM
  NO-NSAID response rate % (average): 29%
